# Test results reported in patent US8642623B2, “Vanilloid receptor ligand compounds, pharmaceutical compositions containing them, a method of producing them and the use thereof to treat pain and various other conditions” (Gruenenthal GmbH, priority 2007, dated 2014).
# Legend:
# Format in all cases: cell-based
# [1] = biological target: T1, vanilloid receptor 1 (VR1/TRPV1) of the rat species (Rattus norvegicus, UniProt O35433); assay: FLIPR Ca2+ influx assay on rat dorsal root ganglia cells, capsaicin stimulus (Pharmacological method I); conditions: capsaicin 100 nM stimulus, Ki from IC50 by Cheng-Prusoff
# T1 construct: The spinal column is removed from decapitated rats; from tissue; host or cells: primary cells from rat dorsal root ganglia (DRG)
# Protocol: (§1) The agonistic or antagonistic action of the substances to be investigated on the vanilloid receptor 1 (VR1/TRPV1) of the rat species may be determined with the following assay. According to this assay, the influx of Ca^2+ through the receptor channel is quantified with the assistance of a Ca^2+-sensitive dye (type Fluo-4, Molecular Probes Europe BV, Leiden, Netherlands) in a Fluorescent Imaging Plate Reader (FLIPR, Molecular Devices, Sunnyvale, USA).
# Complete medium: 50 mL HAMS F12 Nutrient Mixture (Gibco Invitrogen GmbH, Karlsruhe, Germany) with 10 vol. % FCS (foetal calf serum, Gibco Invitrogen GmbH, Karlsruhe, Germany, heat-inactivated);
# Cell culture plate: poly-D-lysine-coated, black 96-hole plates with clear base (96 well black/clear plate, BD Biosciences, Heidelberg, Germany) are additionally coated with laminin (Gibco Invitrogen GmbH, Karlsruhe, Germany), by diluting laminin to a concentration of 100 μg/mL with PBS (Ca—Mg-free PBS, Gibco Invitrogen GmbH, Karlsruhe, Germany). Aliquots with a concentration of 100 μg/mL of laminin are taken and stored at −20° C. The aliquots are diluted with PBS in the ratio of 1:10 to 10 μg/mL of laminin and 50 μL of the solution is pipetted into each well of the cell culture plate. The cell culture plates are incubated for at least two hours at 37° C., the supernatant solution is aspirated and the wells are each washed twice with PBS. The coated cell culture plates are stored with supernatant PBS and this is only removed directly prior to introduction of the cells.
# The spinal column is removed from decapitated rats and this is placed directly in cold HBSS buffer (Hank's buffered saline solution, Gibco Invitrogen GmbH, Karlsruhe, Germany), i.e. located in an ice bath, combined with 1 vol. % (percent by volume) of an AA solution (antibiotic/antimycotic solution, PAA, Pasching, Austria). The spinal column is severed lengthwise and removed from the spinal canal together with fasciae. The dorsal root ganglia (DRGs) are then removed and in turn stored in cold HBSS buffer combined with 1 vol. % of an AA solution. The DRGs, from which blood residues and spinal nerves have been completely removed, are in each case transferred into 500 μL cold collagenase type 2 (PAA, Pasching, Austria) and incubated for 35 minutes at 37° C. After the addition of 2.5 vol. % trypsin (PAA, Pasching, Austria) incubation at 37° C. is continued for a further 10 minutes. After complete incubation, the enzyme solution is carefully pipetted off and the remaining DRGs are combined in each case with 500 μL of complete medium.
# The DRGs are in each case repeatedly suspended, drawn through cannulas no. 1, no. 12 and no. 16 by means of a syringe and transferred into 50 mL Falcon microtubes, these being filled to 15 mL with complete medium. The content of each Falcon microtube is in each case filtered through a 70 μm Falcon filter insert and centrifuged for 10 minutes at 1200 revolutions and room temperature. The resultant pellet is in each case redissolved in 250 μL of complete medium and the cell count is determined.
# The number of cells in the suspension is adjusted to 3×10^5 per mL and a 150 μL portion of this suspension is in each case placed in a well of the cell culture plates which have been coated as described above. The plates are left to stand in the incubator for two to three days at 37° C., 5 vol. % CO2 and 95% relative atmospheric humidity.
# The cells are then loaded with 2 μM Fluo-4 and 0.01 vol. % Pluronic F127 (Molecular Probes Europe BV, Leiden, Netherlands) in HBSS buffer (Hank's buffered saline solution, Gibco Invitrogen GmbH, Karlsruhe, Germany) for 30 min at 37° C., washed 3×with HBSS buffer and, after a further 15 minutes' incubation at room temperature, used for Ca^2+ measurement in the FLIPR assay. Ca^2+-dependent fluorescence is here measured before and after the addition of substances (λex=488 nm, λem=540 nm). […]
# [2] = biological target: T2, vanilloid receptor (VR1) (Homo sapiens, UniProt Q8NER1); assay: FLIPR Ca2+ influx assay with CHO K1 cells transfected with the human VR1 gene, capsaicin stimulus (Pharmacological method II); conditions: for Ki / Ki (human) Capsaicin: capsaicin 100 nM stimulus, Ki from IC50 by Cheng-Prusoff
# T2 construct: expressed in transfected cells; host or cells: CHO K1 cells (ECACC), stably transfected
# Protocol: In addition, compounds according to the invention of the general formulae I, Ia, Ib, I′, I″, I′″ may be preferred which, in a FLIPR assay with CHO K1 cells which have been transfected with the human gene VR1, in a concentration of less than 2000 nM, preferably of less than 1000 nM, particularly preferably of less then 300 nM, very particularly preferably of less than 100 nM, still more preferably of less than 75 nM, further preferably of less than 50 nM, most preferably of less than 10 nM, bring about 50% displacement of capsaicin which is present in a concentration of 100 nM.
# In this FLIPR assay, the influx of Ca^2+ is quantified with the assistance of a Ca^2+-sensitive dye (type Fluo-4, Molecular Probes Europe BV, Leiden, Netherlands) in a Fluorescent Imaging Plate Reader (FLIPR, Molecular Devices, Sunnyvale, USA) as described below.
# as §1, with “(VR1)” for “1 (VR1/TRPV1) of the rat species”, “may also” for “may”, “the” for “the receptor”
# Chinese hamster ovary cells (CHO K1 cells, European Collection of Cell Cultures (ECACC), Great Britain) are stably transfected with the VR1 gene. For functional investigations, these cells are plated out onto poly-D-lysine-coated, black 96-hole plates with a clear base (BD Biosciences, Heidelberg, Germany) at a density of 25,000 cells/hole. The cells are incubated overnight at 37° C. and 5% CO2 in a culture medium (Ham's Nutrient Mixture F12, 10 vol. % FCS (foetal calf serum), 18 μg/mL L-proline). On the following day, the cells are incubated with Fluo-4 (Fluo-4 2 μM, Pluronic F127 0.01 vol. %, Molecular Probes in HBSS (Hank's buffered saline solution), Gibco Invitrogen GmbH, Karlsruhe, Germany) for 30 minutes at 37° C. The plates are then washed 3 times with HBSS buffer and, after a further 15 minutes' incubation at room temperature, used for Ca^2+ measurement in the FLIPR. Ca^2+-dependent fluorescence is here measured before and after the addition of the substances to be investigated (wavelength λex=488 nm, λem=540 nm). Quantification proceeds by measuring the highest fluorescence intensity (FC, fluorescence counts) over time.
# The FLIPR protocol consists of 2 additions of substance. The substances to be tested (10 μM) are firstly pipetted onto the cells and Ca^2+ influx is compared with the control (capsaicin 10 μM) (% activation relative to the Ca^2+ signal after addition of 10 μM of capsaicin). After 5 minutes' incubation, 100 nM of capsaicin are added and the influx of Ca^2+ is likewise determined.
# The percentage inhibition in comparison with the maximum achievable inhibition with 10 μM capsaicin is calculated.
# On the basis of the percentage displacement by different concentrations of the compounds to be tested of the general formula I, IC50 inhibition concentrations which bring about 50% displacement of capsaicin were calculated. Ki values for the test substances were obtained by conversion using the Cheng-Prusoff equation (Cheng, Prusoff; Biochem. Pharmacol. 22, 3099-3108, 1973).
# [3] = biological target: vanilloid receptor 1 (VR1/TRPV1 receptor) (Homo sapiens, UniProt Q8NER1); assay: Human VR1/TRPV1 receptor inhibition after pH stimulus; conditions: for inhibition at 5 µM: compound 5 μM; for inhibition at 10 µM: compound 10 μM
# Sequence of vanilloid receptor 1 (VR1/TRPV1 receptor) (Q8NER1 whole entry): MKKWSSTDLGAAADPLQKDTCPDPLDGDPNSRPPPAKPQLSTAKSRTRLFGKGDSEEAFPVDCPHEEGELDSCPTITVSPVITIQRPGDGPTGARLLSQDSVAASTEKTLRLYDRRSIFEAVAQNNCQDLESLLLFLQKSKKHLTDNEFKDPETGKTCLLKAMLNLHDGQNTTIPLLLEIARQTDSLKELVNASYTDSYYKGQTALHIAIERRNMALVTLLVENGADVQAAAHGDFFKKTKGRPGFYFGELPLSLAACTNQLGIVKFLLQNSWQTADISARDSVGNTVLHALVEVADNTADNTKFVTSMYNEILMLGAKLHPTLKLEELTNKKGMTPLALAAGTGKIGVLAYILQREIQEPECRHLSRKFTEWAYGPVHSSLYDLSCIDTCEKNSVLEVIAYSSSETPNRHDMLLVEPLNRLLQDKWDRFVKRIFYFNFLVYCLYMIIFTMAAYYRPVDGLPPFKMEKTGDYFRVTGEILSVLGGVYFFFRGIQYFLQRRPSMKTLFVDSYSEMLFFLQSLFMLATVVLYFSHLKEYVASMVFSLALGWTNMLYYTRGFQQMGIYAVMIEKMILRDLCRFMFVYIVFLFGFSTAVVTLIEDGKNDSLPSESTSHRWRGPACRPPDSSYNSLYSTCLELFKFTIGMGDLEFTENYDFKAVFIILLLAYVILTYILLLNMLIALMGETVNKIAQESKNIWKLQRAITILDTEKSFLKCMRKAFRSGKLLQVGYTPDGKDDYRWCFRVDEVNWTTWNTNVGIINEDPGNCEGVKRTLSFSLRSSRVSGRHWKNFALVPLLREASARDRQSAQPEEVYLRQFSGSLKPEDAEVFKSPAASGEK
# T2 sequence (Q8NER1 whole entry): as above
# T1 sequence (O35433 whole entry): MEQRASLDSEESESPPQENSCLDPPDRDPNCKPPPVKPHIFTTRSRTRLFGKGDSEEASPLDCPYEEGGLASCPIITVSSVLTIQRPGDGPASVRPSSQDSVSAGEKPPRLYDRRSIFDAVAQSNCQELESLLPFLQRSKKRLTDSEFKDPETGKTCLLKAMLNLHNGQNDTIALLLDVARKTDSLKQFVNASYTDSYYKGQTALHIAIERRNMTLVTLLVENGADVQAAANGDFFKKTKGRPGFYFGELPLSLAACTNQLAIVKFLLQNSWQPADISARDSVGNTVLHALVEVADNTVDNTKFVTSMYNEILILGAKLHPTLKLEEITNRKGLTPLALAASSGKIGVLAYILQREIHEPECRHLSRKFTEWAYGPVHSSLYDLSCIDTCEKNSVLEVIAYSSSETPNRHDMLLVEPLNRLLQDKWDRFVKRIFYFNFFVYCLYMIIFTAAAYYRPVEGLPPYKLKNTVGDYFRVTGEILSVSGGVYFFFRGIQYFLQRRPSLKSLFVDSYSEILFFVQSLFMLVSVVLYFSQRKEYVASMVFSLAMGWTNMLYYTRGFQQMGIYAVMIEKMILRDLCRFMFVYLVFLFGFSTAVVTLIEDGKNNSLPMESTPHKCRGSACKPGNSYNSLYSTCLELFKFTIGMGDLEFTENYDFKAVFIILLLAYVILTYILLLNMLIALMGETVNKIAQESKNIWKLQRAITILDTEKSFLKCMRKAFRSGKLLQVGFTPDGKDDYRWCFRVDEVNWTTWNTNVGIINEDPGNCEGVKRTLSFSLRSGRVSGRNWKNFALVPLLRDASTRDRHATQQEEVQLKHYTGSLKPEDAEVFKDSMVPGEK
structure (smiles),measurement,setting,value
"CCC(=O)N(c1ccccc1)C1CCN(c2nc(C(F)(F)F)ccc2CNC(=O)C(C)c2ccc(N(C(=O)CC)S(C)(=O)=O)c(F)c2)CC1 (stereo not shown) [Example 1, N-(2-fluoro-4-(1-oxo-1-((2-(4-(N-phenylpropionamido)piperidin-1-yl)-6-(trifluoromethyl)pyridin-3-yl)methylamino)propan-2-yl)phenyl)-N-(methylsulfonyl)propionamide]",Ki,[1],19.5 nM
same,Ki,[2],69.1 nM
same,IC50,[3],525 nM
"CC(=O)N(c1ccc(C(C)C(=O)NCc2ccc(C(F)(F)F)nc2N2CCC(C)CC2)cc1F)S(C)(=O)=O (stereo not shown) [Example 2, 2-(3-fluoro-4-(N-(methylsulfonyl)acetamido)phenyl)-N-((2-(4-methylpiperidin-1-yl)-6-(trifluoromethyl)pyridin-3-yl)methyl)propanamide]",Ki,[1],2.2 nM
same,Ki,[2],11.9 nM
same,IC50,[3],947 nM
"CC1CCN(c2nc(C(F)(F)F)ccc2CNC(=O)C(C)c2ccc(N(C)S(C)(=O)=O)c(F)c2)CC1 (stereo not shown) [Example 3, 2-(3-fluoro-4-(N-methylmethylsulfonamido)phenyl)-N-((2-(4-methylpiperidin-1-yl)-6-(trifluoromethyl)pyridin-3-yl)methyl)propanamide]",Ki,[1],20 nM
same,Ki,[2],55.5 nM
same,inhibition at 5 µM,[3],8%
same,inhibition at 10 µM,[3],16%
"CC(C(=O)NCc1ccc(C(C)(C)C)cc1)c1ccc(N(C)S(C)(=O)=O)c(F)c1 (stereo not shown) [Example 4, N-(4-tert.-butylbenzyl)-2-(3-fluoro-4-(N-methylmethylsulfonamido)phenyl)propanamide]",Ki,[1],50.4 nM
same,Ki (human) Capsaicin,[2],Ne
same,inhibition at 5 µM,[3],0%
same,inhibition at 10 µM,[3],22%
"CCN(c1ccc([C@H](C)C(=O)NCc2ccc(C(C)(C)C)cc2)cc1F)S(C)(=O)=O [Example 6, (S)—N-(4-tert.-butylbenzyl)-2-(4-(N-ethylmethylsulfonamido)-3-fluorophenyl)propanamide]",Ki,[1],66.8 nM
same,Ki (human) Capsaicin,[2],Ne
same,inhibition at 5 µM,[3],0%
same,inhibition at 10 µM,[3],21%
"CC(C(=O)NCc1ccc(C(F)(F)F)nc1SC1CCCCC1)c1ccc(N(C)S(C)(=O)=O)c(F)c1 (stereo not shown) [Example 7, N-((2-(cyclohexylthio)-6-(trifluoromethyl)pyridin-3-yl)methyl)-2-(3-fluoro-4-(N-methylmethylsulfonamido)phenyl)propanamide]",Ki,[1],30.8 nM
same,Ki,[2],48.1 nM
same,inhibition at 5 µM,[3],0%
same,inhibition at 10 µM,[3],20%
"CCN(c1ccc(C(C)C(=O)NCc2ccc(C(F)(F)F)nc2N2CCC(C)CC2)cc1F)S(C)(=O)=O (stereo not shown) [Example 9, 2-(4-(N-ethylmethylsulfonamido)-3-fluorophenyl)-N-((2-(4-methylpiperidin-1-yl)-6-(trifluoromethyl)pyridin-3-yl)methyl)propanamide]",Ki,[1],63.8 nM
same,Ki,[2],22.7 nM
same,inhibition at 5 µM,[3],11%
same,inhibition at 10 µM,[3],46%
"CC1CCN(c2nc(C(C)(C)C)ccc2CNC(=O)C(C)c2ccc(N(C)S(C)(=O)=O)c(F)c2)CC1 (stereo not shown) [Example 10, N-((6-tert.-butyl-2-(4-methylpiperidin-1-yl)pyridin-3-yl)methyl)-2-(3-fluoro-4-(N-methylmethylsulfonamido)phenyl)propanamide]",Ki,[1],2.8 nM
same,Ki,[2],27.7 nM
same,inhibition at 5 µM,[3],0%
same,inhibition at 10 µM,[3],11%
"CC(C(=O)NCc1ccc(C(C)(C)C)nc1SC1CCCCC1)c1ccc(N(C)S(C)(=O)=O)c(F)c1 (stereo not shown) [Example 11, N-((6-tert.-butyl-2-(cyclohexylthio)pyridin-3-yl)methyl)-2-(3-fluoro-4-(N-methylmethylsulfonamido)phenyl)propanamide]",Ki,[1],16.8 nM
same,inhibition at 0.1 µM,"[2]; CHO-K1, capsaicin stimulus, compound 0.1 μM",0%
same,inhibition at 1 µM,"[2]; CHO-K1, capsaicin stimulus, compound 1 μM",33%
same,inhibition at 5 µM,"[2]; CHO-K1, capsaicin stimulus, compound 5 μM",56%
same,IC50 (human) after pH stimulus,[3],ne
"CC1CCN(c2cc(C(F)(F)F)ccc2CNC(=O)C(C)c2ccc(N(C)S(C)(=O)=O)c(F)c2)CC1 (stereo not shown) [Example 12, 2-(3-fluoro-4-(N-methylmethylsulfonamido)phenyl)-N-(2-(4-methylpiperidin-1-yl)-4-(trifluoromethyl)benzyl)propanamide]",Ki,[1],5 nM
same,Ki,[2],7.8 nM
same,inhibition at 5 µM,[3],0%
same,inhibition at 10 µM,[3],43%
"CC(C(=O)NCc1ccc(C(F)(F)F)cc1SC1CCCCC1)c1ccc(N(C)S(C)(=O)=O)c(F)c1 (stereo not shown) [Example 13, N-(2-(cyclohexylthio)-4-(trifluoromethyl)benzyl)-2-(3-fluoro-4-(N-methylmethylsulfonamido)phenyl)propanamide]",Ki,[1],5.2 nM
same,Ki,[2],33.1 nM
same,IC50 (human) after pH stimulus,[3],ne
"CC1CCN(c2cc(C(C)(C)C)ccc2CNC(=O)C(C)c2ccc(N(C)S(C)(=O)=O)c(F)c2)CC1 (stereo not shown) [Example 14, N-(4-tert.-butyl-2-(4-methylpiperidin-1-yl)benzyl)-2-(3-fluoro-4-(N-methylmethylsulfonamido)phenyl)propanamide]",Ki,[1],3 nM
same,Ki,[2],13.1 nM
same,inhibition at 5 µM,[3],9%
same,inhibition at 10 µM,[3],43%
